Source: ChEMBL document CHEMBL1132790, “Synthesis and biological activity of a bivalent nucleotide inhibitor of ribonucleotide reductase” (Bioorg Med Chem Lett, 2000)

Tests used:
[1] = (§1) Compound was tested for ribonucleotide reductase (RR) activity by inhibition of dGTP-activated ADP reduction
[2] = as §1; remark: listed apart in the source

Ki [1] [µM] | Km [2] [µM] | SMILES
9 | – | C=CS(=O)(=O)CCCCCCS(=O)(=O)CCSc1nc2c(O)nc(N)nc2n1C1C[C@@H](O)[C@H](COP(=O)(O)OP(=O)(O)OP(=O)(O)O)O1 (stereo partly drawn)
– | 34 | Nc1ncnc2c1ncn2[C@@H]1O[C@H](COP(=O)(O)OP(=O)(O)O)[C@@H](O)[C@H]1O
56 | – | Nc1nc(O)c2nc(Br)n(C3CC(O)C(COP(=O)(O)OP(=O)(O)OP(=O)(O)O)O3)c2n1 (stereo not drawn)
22 | – | C=CS(=O)(=O)CCCCCCS(=O)(=O)CCSc1nc2c(N)ncnc2n1C1O[C@@H](COP(=O)(O)OP(=O)(O)O)[C@H](O)[C@@H]1O (stereo partly drawn)

More lines, now with the values behind:

SMILES | Ki [1] [µM] | Km [2] [µM]
Nc1nc(O)c2nc(S)n(C3CC(O)C(COP(=O)(O)OP(=O)(O)OP(=O)(O)O)O3)c2n1 (stereo not drawn) | 13 | –
Nc1ncnc2c1nc(Br)n2[C@@H]1O[C@H](COP(=O)(O)OP(=O)(O)O)[C@@H](O)[C@H]1O | 77 | –
Nc1ncnc2c1nc(S)n2C1O[C@@H](COP(=O)(O)OP(=O)(O)O)[C@H](O)[C@@H]1O (stereo partly drawn) | 158 | –
Nc1ncnc2c1nc(SCCS(=O)(=O)CCCCCCS(=O)(=O)CCSc1nc3c(N)ncnc3n1C1O[C@H](COP(=O)(O)OP(=O)(O)O)[C@@H](O)[C@H]1O)n2C1O[C@H](COP(=O)(O)OP(=O)(O)O)[C@H](O)[C@@H]1O (stereo partly drawn) | 19 | –
